Assay results from patent US20190045783A1, “SUBSTITUTED IMIDAZOLYLCARBOXAMIDES AS PESTICIDES” (BAYER CROPSCIENCE AKTIENGESELLSCHAFT, priority 2016, published 2019).

Key:
[1] = test system: green peach aphids (Myzus persicae); test: Myzus persicae oral test (MYZUPE O), comparison with prior art; format: in vivo; conditions: Myzus persicae, po, 120 h, MYZUPE O, 5 dat, read-out: % efficacy
Experimental: Myzus persicae—Oral Test (MYZUPE O)
(§1) Solvent: 100 parts by weight of acetone
50 μl of the active compound preparation are transferred into microtitre plates and made up to a final volume of 200 μl with 150 μl of IPL41 insect medium (33%+15% sugar). Subsequently, the plates are sealed with parafilm, which a mixed population of green peach aphids (Myzus persicae) within a second microtitre plate is able to puncture and imbibe the solution through it.
After the desired period of time (dat), the efficacy in % is determined. 100% means that all the aphids have been killed; 0% means that no aphids have been killed.

[2] = test system: green peach aphids (Myzus persicae); test: Myzus persicae oral test; format: in vivo; conditions: application rate 20 ppm, after 5 days, oral, 100% = all aphids killed
Experimental: as §1
Subsequently, the plates are sealed with parafilm, which a mixed population of green peach aphids (Myzus persicae) within a second microtitre plate is able to puncture and imbibe the solution through it.
After 5 days, the efficacy in % is determined. 100% means that all the aphids have been killed; 0% means that no aphids have been killed.

[3] = test system: green peach aphid (Myzus persicae); test: Myzus persicae spray test (bell pepper plants); format: in vivo; conditions: application rate 20 ppm, after 6 days, 100% = all aphids killed
Experimental: (§2) Myzus persicae—Spray Test
Solvent: 14 parts by weight of dimethylformamide
(§3) Emulsifier: alkylaryl polyglycol ether
If the addition of ammonium salts or/and penetrants is required, these are each added in a concentration of 1000 ppm to the formulation solution.
Bell pepper plants (Capsicum annuum) severely infested with the green peach aphid (Myzus persicae) are treated by spraying with the active compound formulation in the desired concentration.
After 6 days, the kill in % is determined. 100% means that all of the aphids have been killed; 0% means that none of the aphids have been killed.

[4] = log P by HPLC on reversed-phase column (C18), EEC directive 79/831 Annex V.A8; format: physicochemical; conditions: for logP [n]: pH 7.8
[5] = test system: engorged adult female cattle ticks (Boophilus microplus); test: Boophilus microplus injection test; format: in vivo; conditions: 20 μg/animal, assessed after 7 days, 100% = no tick laid fertile eggs
Experimental: Boophilus microplus—Injection Test
Solvent: dimethyl sulphoxide
To produce a suitable preparation of active compound, 10 mg of active compound are mixed with 0.5 ml of solvent and the concentrate is diluted with solvent to the desired concentration.
1 μl of the active compound solution is injected into the abdomen of 5 engorged adult female cattle ticks (Boophilus microplus). The animals are transferred into dishes and kept in a climate-controlled room.
Efficacy is assessed after 7 days by laying of fertile eggs. Eggs which are not visibly fertile are stored in a climate-controlled cabinet until the larvae hatch after about 42 days. An efficacy of 100% means that none of the ticks has laid any fertile eggs; 0% means that all the eggs are fertile.

[6] = test system: green peach aphid (Myzus persicae); test: Myzus persicae spray test (Chinese cabbage leaf discs); format: in vivo; conditions: application rate 500 g/ha, after 5-6 days, Chinese cabbage leaf discs; 100% = all aphids killed
Experimental: as §2
To produce a suitable active ingredient formulation, 1 part by weight of active ingredient is dissolved with the stated parts by weight of solvent and made up with water containing an emulsifier concentration of 1000 ppm until the desired concentration is attained. To produce further test concentrations, the formulation is diluted with emulsifier-containing water.
After 5-6 days, the efficacy in % is determined. 100% means that all the aphids have been killed; 0% means that no aphids have been killed.

[7] = test system: caterpillars of the armyworm (Spodoptera frugiperda); conditions: application rate 500 g/ha, after 7 days, maize leaf discs; 100% = all caterpillars killed
Experimental: Spodoptera Frugiperda—Spray Test
as §3
To produce further test concentrations, the formulation is diluted with emulsifier-containing water.
After 7 days, the efficacy in % is determined. 100% means that all the caterpillars have been killed; 0% means that no caterpillar has been killed.

[8] = test system: larvae of the mustard beetle (Phaedon cochleariae); conditions: application rate 500 g/ha, after 7 days, Chinese cabbage leaf discs; 100% = all beetle larvae killed
Experimental: Phaedon cochleariae—Spray Test
After 7 days, the efficacy in % is determined. 100% means that all the beetle larvae have been killed; 0% means that no beetle larvae have been killed.

SMILES | Emax at 0.8 ppm ([1]; 0.8 ppm) | Emax at 4 ppm ([1]; 4 ppm) | pest or weed control at 20 ppm ([2]; Myzus persicae, 120 h, read-out: efficacy in %) | kill in % (efficacy) [3] | chromatographic logP ([4]; reversed-phase HPLC column (C18), neutral range, pH 7.8, HPLC C18, 43° C., Table 1, read-out: logP [n]) | efficacy (laying of fertile eggs) [5] | efficacy in % [2] | efficacy in % [6] | logP [n] [4] | efficacy in % [7] | efficacy in % [8]
CN(C(=O)c1cnc(C2OCCCO2)n1C)c1cccnc1 [I-1-006] | 100% | 100% | 100% | 98% | 0.92 |  |  |  |  |  | 
CN(C(=O)c1cnc(/C=N/OCC(F)(F)F)n1C)c1cccnc1 [I-1-031] |  |  |  |  |  | 80% | 100% | 90% | 1.68 |  | 
CN(C(=O)c1cnc(/C=N/OC(C)(C)C)n1C)c1cccnc1 [I-1-037] |  |  |  |  |  | 90% | 100% | 100% | 1.99 |  | 
CCN(C(=O)c1cnc(C=O)n1C)c1cccnc1 [I-1-039] |  |  |  |  |  |  | 100% |  | 0.97 | 83% | 100%
